IC50 data for 30 compounds are collected here from patent US20240279236A1, “COMPOUNDS AND METHODS OF TREATING TUBERCULOSIS” (Fimbrion Therapeutics, Inc., priority 2021, published 2024).

Structures are written as SMILES.

The experiment relates to WT Mtb Erdman strain. Briefly: Microplate Alamar Blue Assay (MABA), Mtb growth inhibition. The class given is cell-based, Mycobacterium tuberculosis. To be noted: Mycobacterium tuberculosis, ERDMAN, 168 h, Middlebrook 7H9 media, 7 days at 37° C. in 5% CO2. For orientation: Alamar Blue is a resazurin reagent that responds to reducing activity.
As a reminder, the IC50 is the point on the concentration scale where inhibition reaches its midpoint. Read a high IC50 as weaker potency in that assay. On to `CCCCSc1nc(N[C@@H]2C[C@H]2c2ccc(F)c(F)c2)c2cc(C)sc2n1` [Example 87, 2-(butylthio)-N-((1R,2S)-2-(3,4-difluorophenyl)cyclopropyl)-6-methylthieno[2,3-d]pyrimidin-4-amine], for which the IC50 is 1500 nM. That is a single-digit micromolar value.
The figure for `Cc1cc2c(N[C@@H]3C[C@H]3c3ccc(F)c(F)c3)nc(-c3ccco3)nc2s1` [Example 88, N-((1R,2S)-2-(3,4-difluorophenyl)cyclopropyl)-2-(furan-2-yl)-6-methylthieno[2,3-d]pyrimidin-4-amine] is 2200 nM; for `Cc1cccc(-c2nc(N[C@@H]3C[C@H]3c3ccc(F)c(F)c3)c3cc(C)sc3n2)n1` [Example 89, N-((1R,2S)-2-(3,4-difluorophenyl)cyclopropyl)-6-methyl-2-(6-methylpyridin-2-yl)thieno[2,3-d]pyrimidin-4-amine] it is more than 10000 nM.
To `Cc1cc2c(NCCCc3ccccc3)nc(-c3ccc(Cl)cc3)nc2s1` [Example 90, 2-(4-chlorophenyl)-6-methyl-N-(3-phenylpropyl)thieno [2,3-d]pyrimidin-4-amine] belongs 2000 nM; to `Cc1cc2c(NCCCc3ccccc3)nc(-c3cccc(Cl)c3)nc2s1` [Example 91, 2-(3-chlorophenyl)-6-methyl-N-(3-phenylpropyl)thieno [2,3-d]pyrimidin-4-amine], 5900 nM.
To `Cc1cc2c(NCCCc3ccccc3)nc(-c3ccc(N(C)C)cc3)nc2s1` [Example 92, 2-(4-(dimethylamino)phenyl)-6-methyl-N-(3-phenylpropyl)thieno [2,3-d]pyrimidin-4-amine] belongs 2700 nM.
Consider `Cc1cc2c(NCCCc3ccccc3)nc(C3CCCC3)nc2s1` [Example 94, 2-cyclopentyl-6-methyl-N-(3-phenylpropyl)thieno [2,3-d]pyrimidin-4-amine], for which the midpoint of inhibition, the IC50, lay at 930 nM.
To `Cc1cc2c(NCCCc3ccccc3)nc(C3CCCCC3)nc2s1` [Example 95, 2-cyclohexyl-6-methyl-N-(3- |phenylpropyl)thieno [2,3-d]pyrimidin-4-amine] belongs more than 10000 nM.
To `Cc1cc2c(NCCCc3ccccc3)nc(C(N)=O)nc2s1` [Example 96, 6-methyl-4-((3-phenylpropyl)amino) thieno[2,3-d]pyrimidine-2-carboxamide] belongs 130 nM; to `Cc1cc2c(NCCCc3ccccc3)nc(CC3CC3)nc2s1` [Example 97, 2-(cyclopropyLMethyl)-6-methyl-N-(3. phenylpropyl)thieno [2,3-d]pyrimidin-4-amine], 360 nM.
The figure for `COC(=O)c1nc(NCCCc2ccccc2)c2cc(C)sc2n1` [Example 98, methyl 6-methyl-4-((3-phenylpropyl)amino) thieno[2,3-d]pyrimidine-2-carboxylate] is more than 10000 nM; for `CCc1nc(NCCCc2ccccc2)c2cc(C(F)(F)F)sc2n1` [Example 99, 2-ethyl-N-(3-phenylpropyl)-6-(trifluoromethyl)thieno [2,3-d]pyrimidin-4-amine] it is 5700 nM; for `Cc1cc2c(NCCCc3ccccc3)nc(SC(C)C)nc2s1` [Example 100, 2-(isopropylthio)-6-methyl-N-(3-phenylpropyl)thieno [2,3-d]pyrimidin-4-amine] it is 3200 nM.
Consider `Cc1cc2c(NCCCc3ccccc3)nc(-c3ccsc3)nc2s1` [Example 101, 6-methyl-N-(3-phenylpropyl)-2-(thiophen-3-yl)thieno[2,3-d]pyrimidin-4-amine], for which the IC50 came out at 490 nM.
The figure for `Cc1cc2c(NCCCc3ccccc3)nc(-c3ccoc3)nc2s1` [Example 102, 2-(furan-3-yl)-6-methyl-N-(3-phenylpropyl)thieno [2,3-d]pyrimidin-4-amine] is 27 nM; for `COc1ccc(CCCNc2nc(SC)nc3sc(C)cc23)cc1` [Example 103, N-(3-(4-methoxyphenyl)propyl)-6-methyl-2-(methylthio)thieno[2,3-d]pyrimidin-4-amine] it is 22 nM; for `Cc1cc2c(NCCCc3ccccc3)nc(-c3cccnn3)nc2s1` [Example 104, 6-methyl-N-(3-phenylpropyl)-2-(pyridazin-3-yl)thieno[2,3-d]pyrimidin-4-amine] it is 2000 nM.
To `Cc1cc2c(NCCCc3ccccc3)nc(-c3cnccn3)nc2s1` [Example 105, 6-methyl-N-(3-phenylpropyl)-2-(pyrazin-2-yl)thieno[2,3-d]pyrimidin-4-amine] belongs 2000 nM; to `Cc1cc2c(NCCCc3ccccc3)nc(C3CCC3)nc2s1` [Example 106, 2-cyclobutyl-6-methyl-N-(3-phenylpropyl)thieno [2,3-d]pyrimidin-4-amine], 490 nM; to `Cc1cc2c(N[C@@H]3C[C@H]3c3ccc(F)c(F)c3)nc(C(N)=O)nc2s1` [Example 107, 4-(((1R,2S)-2-(3,4-difluorophenyl)cyclopropyl)amino)-6-methylthieno[2,3-d]pyrimidine-2-carboxamide], more than 6400 nM.
The figure for `Cc1cc2c(NCCCc3ccccc3)nc(CN3CCCC3)nc2s1` [Example 108, 6-methyl-N-(3-phenylpropyl)-2-(pyrrolidin-1-yLM ethyl)thieno[2,3-d]pyrimidin-4-amine] is more than 7800 nM.
`Cc1cc2c(NCCCc3ccccc3)nc(CN(C)C)nc2s1` [Example 109, 2-((dimethylamino)methyl)-6-methyl-N-(3-phenylpropyl)thieno [2,3-d]pyrimidin-4-amine] showed an IC50 of more than 10000 nM.
To `Cc1cc2c(NCCCc3ccccc3)nc(-c3ccon3)nc2s1` [Example 110, 2-(isoxazol-3-yl)-6-methyl-N-(3-phenylpropyl)thieno [2,3-d]pyrimidin-4-amine] belongs 55 nM.
The figure for `Cc1cc(-c2nc(NCCCc3ccccc3)c3cc(C)sc3n2)no1` [Example 111, 6-methyl-2-(5-methylisoxazol-3-yl)-N-(3-phenylpropyl)thieno [2,3-d]pyrimidin-4-amin] is 210 nM.
The figure for `Cc1cc2c(NCCCc3ccccc3)nc(-c3cc[nH]n3)nc2s1` [Example 112, 6-methyl-N-(3-phenylpropyl)-2-(1H-pyrazol-3-yl)thieno[2,3-d]pyrimidin-4-amine] is 2800 nM; for `Cc1cc2c(NCCCc3ccccc3)nc(-c3ccco3)nc2s1` [Example 113] it is 800 nM.
`Cc1cc2c(N[C@@H]3C[C@H]3c3ccc(F)c(F)c3)nc(-c3ccoc3)nc2s1` [Example 114, N-((1R,2S)-2-(3,4-difluorophenyl)cyclopropyl)-2-(furan-3-yl)-6-methylthieno[2,3-d]pyrimidin-4-amine] registered an IC50 of 620 nM.
To `Cc1cc2c(N[C@@H]3C[C@H]3c3ccc(F)c(F)c3)nc(C3CCC3)nc2s1` [Example 115, 2-cyclobutyl-N-((1R,2S)-2-(3,4-difluorophenyl)cyclopropyl)-6-methylthieno[2,3-d]pyrimidin-4-amine] belongs 640 nM; to `COC(C)(C)c1nc(NCCCc2ccccc2)c2cc(C)sc2n1` [Example 116, 2-(2-methoxypropan-2-yl)-6-methyl-N-(3-phenylpropyl)thieno [2,3-d]pyrimidin-4-amine], more than 10000 nM.
For the compound `COC(=O)c1nc(NCCCc2ccc(OC(F)(F)F)cc2)c2cc(C)sc2n1` [Example 117, methyl 6-methyl-4-((3-(4-(trifluoromethoxy)phenyl)propyl)amino) thieno[2,3-d]pyrimidine-2-carboxylate], the 50% inhibitory concentration (IC50) is more than 7700 nM.
